{"source": "patent US12215354B2", "about": "“Differentiation of human embryonic stem cells into single hormonal insulin positive cells” (Janssen Biotech, Inc., priority 2011, dated 2025)", "test_system": "human embryonic stem cell line H1", "test": "Real-time PCR gene expression, ascorbic acid at stages 3-5 (Example 11)", "format": "cell-based", "details": "at stages 4-5", "procedure": "Cells of the human embryonic stem cell line H1 at various passages (passage 40 to passage 52) were seeded as single cells at a density of 100,000 cells/cm^2 on MATRIGEL™ (1:30 dilution) coated dishes in mTesr™1 media and 10 μM of Y27632. Forty eight hours post seeding, cultures were differentiated into pancreatic endocrine lineage as follows: • a. Stage 1 (Definitive Endoderm (DE)−3 days): Prior to start of DE, the cultures were washed and incubated with incomplete PBS (no Mg or Ca) for 30 seconds followed by addition of the stage 1 media. Human embryonic stem cells cultured as single cells on MATRIGEL™-coated dishes were treated with MCDB-131 medium supplemented with 0.1% fatty acid-free BSA, 0.0012 g/ml sodium bicarbonate, 1× GLUTAMAX™, 5 mM D-Glucose, 100 ng/ml GDF8, and 1 μM MCX compound (GSK3B inhibitor) for one day. Cells were then treated with MCDB-131 medium supplemented with 0.1% fatty acid-free BSA, 0.0012 g/ml sodium bicarbonate, 1× GLUTAMAX™, 5 mM glucose, 100 ng/ml GDF8, and 100 nM MCX compound for day two, followed by an additional day in MCDB-131 medium supplemented with 0.1% fatty acid-free BSA, 0.0012 g/ml sodium bicarbonate, 1× GLUTAMAX™, 5 mM Glucose, and 100 ng/ml GDF8. • b. Stage 2 (Primitive gut tube−2 days): Stage 1 cells were treated with MCDB-131 medium supplemented with 0.1% fatty acid-free BSA, 0.0012 g/ml sodium bicarbonate, 1× GLUTAMAX™, 5 mM D-Glucose, and 25 ng/ml FGF7 for two days. • c. Stage 3 (Foregut−2 days): Stage 2 cells were treated with MCDB-131 medium supplemented with 1:200 dilution of ITS-X, 2.5 mM Glucose, 1× GLUTAMAX™, 0.0015 g/ml sodium bicarbonate, 2% fatty acid-free BSA, 10 ng/ml Activin A, 25 ng/ml FGF7, 0.25 μM SANT-1, 1 μM RA, 200 nM TPB (PKC activator), 100 nM LDN-193189 (BMP receptor inhibitor) for one day. Cells were then treated with MCDB-131 medium supplemented with 1:200 dilution of ITS-X, 2.5 mM Glucose, 1× GLUTAMAX™, 0.0015 g/ml sodium bicarbonate, 2% fatty acid-free BSA, 10 ng/ml Activin A, 25 ng/ml FGF7, 0.25 μM SANT-1, 1 μM RA, 200 nM TPB (PKC activator), 10 nM LDN-193189 for an additional day. […]", "key": {"[1]": {"details": "ascorbic acid added at stage 3 or at stages 3 and 4"}}, "data": [{"compound": "O=C1O[C@H]([C@@H](O)CO)C(O)=C1O", "note": "[ascorbic acid]", "values": [{"measurement": "expression of pancreatic endoderm markers PDX-1 and NKX6.1", "setting": "0.25 mM ascorbic acid", "result": "not significantly altered"}, {"measurement": "expression of insulin", "setting": "[1]", "result": "increasing"}, {"measurement": "expression of somatostatin and glucagon", "setting": "[1]", "result": "significantly decreased"}]}]}
